{
  "source": "patent US20230056488A1",
  "about": "“COMPOSITION, ARTICLE AND METHOD FOR AFFECTING A MAMMAL” (COOLHOUSE SOURCING LLC, priority 2020, published 2023)",
  "origin": "cited, not measured here",
  "key": {"[1]": {"settings": "oral and parenteral forms"}, "[2]": {"settings": "laboratory and animal research"}, "[3]": {"settings": "in vivo"}, "[4]": {"test_system": "ionotropic glutamate receptors"}},
  "data": [
    {"compound": "C[S@@+](CC[C@H](N)C(=O)[O-])C[C@H]1O[C@@H](n2cnc3c(N)ncnc32)[C@H](O)[C@@H]1O", "note": "[SAMe, (S)-2-amino-4-((SS)-(((2S,3S,4R,5R)-5-(6-amino-9H-purin-9-yl)-3,4-dihydroxytetrahydrofuran-2-yl)methyl)(methyl)sulfonio)butanoate]", "values": [
      {"measurement": "crossing of the blood-brain barrier / cerebrospinal fluid concentrations", "setting": "[1]", "result": "cross the blood-brain barrier and increase concentrations in cerebrospinal fluid"}
    ]},
    {"compound": "CCCCCc1cc(O)c2c(c1)OC(C)(C)[C@@H]1CCC(C)=C[C@@H]21", "note": "[THC, tetrahydrocannabinol]", "values": [
      {"measurement": "toxicity to dogs", "result": "toxic to dogs"}
    ]},
    {"compound": "CCCc1cc(O)c2c(c1)OC(C)(C)[C@@H]1CCC(C)=C[C@@H]21", "note": "[THCV, Tetrahydrocannabivarin]", "values": [
      {"measurement": "anti-inflammatory effects", "setting": "[2]", "result": "some anti-inflammatory effects"}
    ]},
    {"compound": "CCNC(=O)CC[C@H](N)C(=O)O", "note": "[Theanine, theanine]", "values": [
      {"measurement": "crossing of the blood brain barrier", "setting": "[3]", "result": "cross the blood brain barrier (“BBB”) intact"},
      {"measurement": "binding to ionotropic glutamate receptors (AMPA and kainate receptors; lesser extent NMDA)", "setting": "[4]", "result": "micromolar range"}
    ]}
  ]
}
